ChEMBL document CHEMBL1759834, “Synthesis, stereochemistry, antimicrobial evaluation and QSAR studies of 2,6-diaryltetrahydropyran-4-one thiosemicarbazones” (2011)
≈ marks a conversion by molar mass, not a printed value.

Experiments:
Bacillus subtilis = assay: Antibacterial activity against Bacillus subtilis ATCC 451 after 24 hrs by twofold serial dilution method; type: functional; conditions: for MIC: Bacillus subtilis, ATCC 451, 24 h
Pseudomonas aeruginosa = assay: Antibacterial activity against Pseudomonas aeruginosa ATCC 10145 after 24 hrs by twofold serial dilution method; type: functional; conditions: for MIC: Pseudomonas aeruginosa, ATCC 10145, 24 h
Cryptococcus neoformans = assay: Antifungal activity against Cryptococcus neoformans after 72 to 96 hrs by twofold serial dilution method; type: functional; conditions: for MIC: Cryptococcus neoformans
Escherichia coli = assay: Antibacterial activity against Escherichia coli ATCC 25835 after 24 hrs by twofold serial dilution method; type: functional; conditions: for MIC: Escherichia coli, ATCC 25835, 24 h
Klebsiella pneumoniae = assay: Antibacterial activity against Klebsiella pneumoniae ATCC 15490 after 24 hrs by twofold serial dilution method; type: functional; conditions: for MIC: Klebsiella pneumoniae, ATCC 15490, 24 h
Candida albicans = assay: Antifungal activity against Candida albicans after 24 hrs by twofold serial dilution method; type: functional; conditions: for MIC: Candida albicans, 24 h
Staphylococcus aureus = assay: Antibacterial activity against Staphylococcus aureus ATCC 25825 after 24 hrs by twofold serial dilution method; type: functional; conditions: for MIC: Staphylococcus aureus, ATCC 25825, 24 h
Aspergillus niger = assay: Antifungal activity against Aspergillus niger after 72 to 96 hrs by twofold serial dilution method; type: functional; conditions: for MIC: Aspergillus niger
Salmonella typhi = assay: Antibacterial activity against Salmonella typhi ATCC 24915 after 24 hrs by twofold serial dilution method; type: functional, Salmonella enterica subsp. enterica serovar Typhi; conditions: for MIC: Salmonella enterica, ATCC 24915, 24 h

Compound	-logMIC (Bacillus subtilis)	MIC (Bacillus subtilis)	-logMIC (Pseudomonas aeruginosa)	MIC (Pseudomonas aeruginosa)	-logMIC (Cryptococcus neoformans)	MIC (Cryptococcus neoformans)	-logMIC (Escherichia coli)	MIC (Escherichia coli)	-logMIC (Klebsiella pneumoniae)	MIC (Klebsiella pneumoniae)	-logMIC (Candida albicans)	MIC (Candida albicans)	-logMIC (Staphylococcus aureus)	MIC (Staphylococcus aureus)	-logMIC (Aspergillus niger)	MIC (Aspergillus niger)	MIC (Salmonella typhi)	-logMIC (Salmonella typhi)
CC[C@@H]1/C(=N/NC(=S)Nc2ccccc2)C[C@@H](c2ccccc2)O[C@H]1c1ccccc1	4	100 µg/mL (≈ 233 µM)	4.602	25 µg/mL (≈ 58.2 µM)	4.903	12.5 µg/mL (≈ 29.1 µM)	4	100 µg/mL (≈ 233 µM)	4	100 µg/mL (≈ 233 µM)	4	100 µg/mL (≈ 233 µM)	4.301	50 µg/mL (≈ 116 µM)	4.301	50 µg/mL (≈ 116 µM)	50 µg/mL (≈ 116 µM)	–
C[C@@H]1/C(=N\NC(=S)Nc2ccccc2)[C@@H](C)[C@H](c2ccc(F)cc2)O[C@@H]1c1ccc(F)cc1	4.301	50 µg/mL (≈ 107 µM)	4.903	12.5 µg/mL (≈ 26.8 µM)	5.204	6.25 µg/mL (≈ 13.4 µM)	4	100 µg/mL (≈ 215 µM)	4.301	50 µg/mL (≈ 107 µM)	4	100 µg/mL (≈ 215 µM)	4.301	50 µg/mL (≈ 107 µM)	4	100 µg/mL (≈ 215 µM)	25 µg/mL (≈ 53.7 µM)	4.602
C[C@@H]1/C(=N\NC(=S)Nc2ccccc2)[C@@H](C)[C@H](c2ccc(Cl)cc2)O[C@@H]1c1ccc(Cl)cc1	4.602	25 µg/mL (≈ 50.2 µM)	5.204	6.25 µg/mL (≈ 12.5 µM)	5.204	6.25 µg/mL (≈ 12.5 µM)	4	100 µg/mL (≈ 201 µM)	4.903	12.5 µg/mL (≈ 25.1 µM)	4.903	12.5 µg/mL (≈ 25.1 µM)	4.602	25 µg/mL (≈ 50.2 µM)	4.301	50 µg/mL (≈ 100 µM)	25 µg/mL (≈ 50.2 µM)	–
C[C@@H]1/C(=N\NC(=S)Nc2ccccc2)[C@@H](C)[C@H](c2ccc(Br)cc2)O[C@@H]1c1ccc(Br)cc1	4.602	25 µg/mL (≈ 42.6 µM)	5.204	6.25 µg/mL (≈ 10.6 µM)	4.903	12.5 µg/mL (≈ 21.3 µM)	4	100 µg/mL (≈ 170 µM)	4.602	25 µg/mL (≈ 42.6 µM)	5.204	6.25 µg/mL (≈ 10.6 µM)	4.602	25 µg/mL (≈ 42.6 µM)	4.602	25 µg/mL (≈ 42.6 µM)	12.5 µg/mL (≈ 21.3 µM)	–
Cc1ccc([C@H]2O[C@@H](c3ccc(C)cc3)[C@H](C)/C(=N/NC(=S)Nc3ccccc3)[C@H]2C)cc1	4.301	50 µg/mL (≈ 109 µM)	4	100 µg/mL (≈ 219 µM)	4.301	50 µg/mL (≈ 109 µM)	4.301	50 µg/mL (≈ 109 µM)	–	–	5.204	6.25 µg/mL (≈ 13.7 µM)	4	100 µg/mL (≈ 219 µM)	4.602	25 µg/mL (≈ 54.6 µM)	50 µg/mL (≈ 109 µM)	–
COc1ccc([C@H]2O[C@@H](c3ccc(OC)cc3)[C@H](C)/C(=N/NC(=S)Nc3ccccc3)[C@H]2C)cc1	4.903	12.5 µg/mL (≈ 25.5 µM)	4.602	25 µg/mL (≈ 51.1 µM)	3.698	200 µg/mL (≈ 408 µM)	4.602	25 µg/mL (≈ 51.1 µM)	4.602	25 µg/mL (≈ 51.1 µM)	5.204	6.25 µg/mL (≈ 12.8 µM)	4.903	12.5 µg/mL (≈ 25.5 µM)	4.602	25 µg/mL (≈ 51.1 µM)	100 µg/mL (≈ 204 µM)	4
C[C@@H]1/C(=N\NC(=S)Nc2ccccc2)[C@@H](C)[C@H](c2ccccc2Cl)O[C@@H]1c1ccccc1Cl	4.301	50 µg/mL (≈ 100 µM)	4.301	50 µg/mL (≈ 100 µM)	4.602	25 µg/mL (≈ 50.2 µM)	4.602	25 µg/mL (≈ 50.2 µM)	4.903	12.5 µg/mL (≈ 25.1 µM)	4.301	50 µg/mL (≈ 100 µM)	4.301	50 µg/mL (≈ 100 µM)	3.698	200 µg/mL (≈ 401 µM)	25 µg/mL (≈ 50.2 µM)	–
C[C@@H]1/C(=N\NC(=S)Nc2ccccc2)[C@@H](C)[C@H](c2cccc(Cl)c2)O[C@@H]1c1cccc(Cl)c1	4.602	25 µg/mL (≈ 50.2 µM)	4.602	25 µg/mL (≈ 50.2 µM)	4.602	25 µg/mL (≈ 50.2 µM)	4	100 µg/mL (≈ 201 µM)	4.903	12.5 µg/mL (≈ 25.1 µM)	4.602	25 µg/mL (≈ 50.2 µM)	4.301	50 µg/mL (≈ 100 µM)	4	100 µg/mL (≈ 201 µM)	12.5 µg/mL (≈ 25.1 µM)	–
C[C@@H]1[C@H](O)[C@@H](C)/C=C/C=C/C=C/C=C/C=C/C=C/C=C/[C@H](O[C@@H]2O[C@H](C)[C@@H](O)[C@H](N)[C@@H]2O)C[C@@H]2O[C@](O)(C[C@@H](O)C[C@@H](O)[C@H](O)CC[C@@H](O)C[C@@H](O)CC(=O)O[C@H]1C)C[C@H](O)[C@H]2C(=O)O [AMPHOTERICIN B]	–	–	–	–	4.602	25 µg/mL (≈ 27.1 µM)	–	–	–	–	–	25 µg/mL (≈ 27.1 µM)	–	–	4.301	50 µg/mL (≈ 54.1 µM)	–	–
